Experiment in all cases: Antibacterial activity (MIC), agar dilution
Holding throughout (type): cell-based

In one assay the test system is Aci. antitratus A-6. The following applies: 20 h, Aci. antitratus A-6; 10^6 cells per ml; 37° C., 20 hours; read-out: MIC. An excerpt: (§1) The amount of bacteria inoculated was 10^4 cells per plate (10^6 cells per ml).
A further assay deals with E. coli NIHJ JC-2. The note with it: Escherichia coli, NIHJJC2, 20 h, E. coli NIHJ JC-2; 10^6 cells per ml; 37° C., 20 hours; read-out: MIC.
Source text: as §1

The subject of another assay is E. coli TK-111. The following applies: Escherichia coli, TK111, 20 h, E. coli TK-111; 10^6 cells per ml; 37° C., 20 hours; read-out: MIC.
Source text: as §1

For another assay, the system named is Ent. cloacae IID977. The following applies: Enterobacter cloacae, IID977, 20 h, Ent. cloacae IID977; 10^6 cells per ml; 37° C., 20 hours; read-out: MIC.
Source text: as §1

A further assay deals with Kl. pneumoniae Y-41. The note with it: Klebsiella pneumoniae, Y41, 10^6 cells per ml, 37° C., 20 hours, read-out: MIC.
Source text: as §1

The next assay concerns Kl. pneumoniae Y-50. The note with it: Klebsiella pneumoniae, Y50, 20 h, 10^6 cells per ml, 37° C., read-out: MIC.
Source text: as §1

For another assay, the system named is Pro. mirabilis T-111. The following applies: Proteus mirabilis, T111, 20 h, 10^6 cells per ml, 37° C.
Source text: as §1

A further assay relates to Pro. morganii T-216. The note with it: Morganella morganii, 37° C.
Source text: as §1

The test system of the next assay is Pro. vulgaris GN3027. The following applies: Proteus vulgaris, GN3027, 20 h, Pro. vulgaris GN3027; 10^6 cells per ml; 37° C., 20 hours; read-out: MIC.
Source text: as §1

The subject of the next assay is Ps. aeruginosa IFO3445. The note with it: Pseudomonas aeruginosa; Ps. aeruginosa IFO3445; 10^6 cells per ml; 37° C., 20 hours; read-out: MIC.
Source text: as §1

For the next assay, the system named is Ps. aeruginosa S-68. The following applies: Pseudomonas aeruginosa, S68; Ps. aeruginosa S-68; 10^6 cells per ml; 37° C., 20 hours; read-out: MIC.
Source text: as §1

The next assay relates to St. aureus FDA209P. The note with it: Staphylococcus aureus, FDA209P, 20 h, St. aureus FDA209P; 10^6 cells per ml; 37° C., 20 hours; read-out: MIC.
Source text: as §1

The test system of another assay is E. coli TK-3*. The following applies: Escherichia coli, 20 h, E. coli TK-3, penicillinase-producing; 10^6 cells per ml; read-out: MIC.
Source text: as §1
(§2) * Penicillinase-producing bacteria

Another assay has as its system Kl. pneumoniae Y-4*. The note with it: Klebsiella pneumoniae, 20 h, Kl. pneumoniae Y-4, penicillinase-producing; 10^6 cells per ml; read-out: MIC.
Source text: as §1, §2

The subject of the next assay is Ps. aeruginosa GN3379*. The following applies: Pseudomonas aeruginosa, 20 h; Ps. aeruginosa GN3379, penicillinase-producing; 10^6 cells per ml; read-out: MIC.
Source text: as §1, §2

In another assay the test system is St. aureus F-137*. The note with it: Staphylococcus aureus, 20 h, St. aureus F-137, penicillinase-producing; 10^6 cells per ml; read-out: MIC.
Source text: as §1, §2

A further assay deals with E. coli GN5482**. The following applies: Escherichia coli, 20 h; E. coli GN5482, cephalospolinase-producing; 10^6 cells per ml; read-out: MIC.
Source text: as §1
(§3) ** Cephalospolinase-producing bacteria

In another assay the test system is Pro. vulgaris GN76**. The following applies: Proteus vulgaris.
Source text: as §1, §3

Another assay relates to Ps. aeruginosa GN918**. The following applies: Pseudomonas aeruginosa, Ps. aeruginosa GN918, cephalospolinase-producing, 10^6 cells per ml.
Source text: as §1, §3

[1] abbreviates: T216, 10^6 cells per ml, 20 hours, read-out: MIC.
[2] abbreviates: 20 h, Pro. vulgaris GN76, cephalospolinase-producing, 10^6 cells per ml, read-out: MIC.

The record followed here is US4698352A, “4-oxo-1,4-dihydronicotinic acid derivatives, salts thereof, and antibacterial agents containing the same” (Toyama Chemical Co., Ltd., priority 1982, dated 1987).

Converted amounts (≈) assume the structure as drawn. Where two headings read alike, the source gives them in different places.

What is called MIC is the smallest concentration in the dilution series that meets the test's criterion for growth inhibition. As for `CN1CCOc2cc(-c3cc(=O)c(C(=O)O)cn3-c3ccc(O)cc3)ccc21`, the MIC in the assay on Aci. antitratus A-6 was determined as 0.78 µg/mL (≈ 2.06 µM); with E. coli NIHJ JC-2 it was 0.39 µg/mL (≈ 1.03 µM); in the assay on E. coli TK-111, 0.2 µg/mL (≈ 0.529 µM); in the assay on Ent. cloacae IID977, 1.56 µg/mL (≈ 4.12 µM); with Kl. pneumoniae Y-41, 3.13 µg/mL (≈ 8.27 µM); in the assay with Kl. pneumoniae Y-50, 0.78 µg/mL (≈ 2.06 µM). The MIC against Pro. mirabilis T-111 was found to be 3.13 µg/mL (≈ 8.27 µM); in the assay with Pro. morganii T-216 (setting [1]), 1.56 µg/mL (≈ 4.12 µM); in the assay with Pro. vulgaris GN3027 it was 0.39 µg/mL (≈ 1.03 µM); in the assay with Ps. aeruginosa IFO3445 it was 12.5 µg/mL (≈ 33 µM); in the assay on Ps. aeruginosa S-68, 6.25 µg/mL (≈ 16.5 µM); in the assay on St. aureus FDA209P, 0.39 µg/mL (≈ 1.03 µM). Also, the MIC was 0.78 µg/mL (≈ 2.06 µM) with E. coli TK-3*; 3.13 µg/mL (≈ 8.27 µM) in the assay with Kl. pneumoniae Y-4*; 12.5 µg/mL (≈ 33 µM) with Ps. aeruginosa GN3379*; 0.39 µg/mL (≈ 1.03 µM) in the assay on St. aureus F-137*; no more than 0.05 µg/mL with E. coli GN5482**; 3.13 µg/mL (≈ 8.27 µM) with Pro. vulgaris GN76** (GN76, 20 h). Further, the MIC with Ps. aeruginosa GN918** (20 h, read-out: MIC) was found to be 6.25 µg/mL (≈ 16.5 µM).

For `CN1CCOc2cc(-c3cc(=O)c(C(=O)O)cn3-c3ccc(O)cc3F)ccc21`, the MIC turned out to be 0.39 µg/mL (≈ 0.984 µM) with Aci. antitratus A-6; 0.39 µg/mL (≈ 0.984 µM) in the assay on E. coli NIHJ JC-2; 0.1 µg/mL (≈ 0.252 µM) with E. coli TK-111; 0.78 µg/mL (≈ 1.97 µM) in the assay on Ent. cloacae IID977; 3.13 µg/mL (≈ 7.9 µM) in the assay on Kl. pneumoniae Y-41; 0.39 µg/mL (≈ 0.984 µM) in the assay on Kl. pneumoniae Y-50. The MIC against Pro. mirabilis T-111 worked out at 3.13 µg/mL (≈ 7.9 µM); with Pro. morganii T-216 (setting [1]), 1.56 µg/mL (≈ 3.94 µM); with Pro. vulgaris GN3027, 0.39 µg/mL (≈ 0.984 µM); with Ps. aeruginosa IFO3445, 6.25 µg/mL (≈ 15.8 µM); with Ps. aeruginosa S-68 it was 6.25 µg/mL (≈ 15.8 µM); with St. aureus FDA209P it was 0.39 µg/mL (≈ 0.984 µM). Further, the MIC in the assay on E. coli TK-3* is 0.78 µg/mL (≈ 1.97 µM); in the assay on Kl. pneumoniae Y-4* it was 3.13 µg/mL (≈ 7.9 µM); in the assay with Ps. aeruginosa GN3379*, 12.5 µg/mL (≈ 31.5 µM); with St. aureus F-137*, 0.2 µg/mL (≈ 0.505 µM); in the assay with E. coli GN5482** it was no more than 0.05 µg/mL; in the assay on Pro. vulgaris GN76** (GN76, 20 h), 3.13 µg/mL (≈ 7.9 µM). The molecule also displayed an MIC with Ps. aeruginosa GN918** (GN918, 20 h) of 3.13 µg/mL (≈ 7.9 µM).

Regarding `Cc1cc(O)ccc1-n1cc(C(=O)O)c(=O)cc1-c1ccc2c(c1)NCCN2C`, the minimum inhibitory concentration (MIC) stood at 1.56 µg/mL (≈ 3.99 µM) in the assay on Aci. antitratus A-6; 0.39 µg/mL (≈ 0.996 µM) in the assay with E. coli NIHJ JC-2; 0.2 µg/mL (≈ 0.511 µM) in the assay with E. coli TK-111; 1.56 µg/mL (≈ 3.99 µM) in the assay on Ent. cloacae IID977; 3.13 µg/mL (≈ 8 µM) in the assay on Kl. pneumoniae Y-41; 0.39 µg/mL (≈ 0.996 µM) with Kl. pneumoniae Y-50. The MIC in the assay with Pro. mirabilis T-111 is 3.13 µg/mL (≈ 8 µM); against Pro. morganii T-216 (T216, 20 h, 10^6 cells per ml) it was 3.13 µg/mL (≈ 8 µM); in the assay on Pro. vulgaris GN3027, 0.78 µg/mL (≈ 1.99 µM); in the assay on Ps. aeruginosa IFO3445 it was 25 µg/mL (≈ 63.9 µM); in the assay on Ps. aeruginosa S-68, 12.5 µg/mL (≈ 31.9 µM); with St. aureus FDA209P, 0.78 µg/mL (≈ 1.99 µM). Further, the MIC with E. coli TK-3* was determined as 0.78 µg/mL (≈ 1.99 µM); with Kl. pneumoniae Y-4*, 6.25 µg/mL (≈ 16 µM); in the assay with Ps. aeruginosa GN3379*, 25 µg/mL (≈ 63.9 µM); with St. aureus F-137* it was 0.78 µg/mL (≈ 1.99 µM); in the assay on E. coli GN5482**, 0.1 µg/mL (≈ 0.255 µM); in the assay with Pro. vulgaris GN76** (setting [2]) it was 1.56 µg/mL (≈ 3.99 µM). For the same molecule, the minimum inhibitory concentration (MIC) against Ps. aeruginosa GN918** (GN918, 20 h) is 3.13 µg/mL (≈ 8 µM).

For the molecule `Cc1cc(O)ccc1-n1cc(C(=O)O)c(=O)cc1C1CC=CCC1` (stereo not shown), the MIC in the assay with Aci. antitratus A-6 was found to be 0.2 µg/mL (≈ 0.615 µM); in the assay on E. coli NIHJ JC-2, 0.39 µg/mL (≈ 1.2 µM); in the assay on E. coli TK-111, 0.1 µg/mL (≈ 0.307 µM); in the assay with Ent. cloacae IID977, 0.78 µg/mL (≈ 2.4 µM); in the assay with Kl. pneumoniae Y-41, 1.56 µg/mL (≈ 4.79 µM); in the assay with Kl. pneumoniae Y-50, 0.39 µg/mL (≈ 1.2 µM). In addition, the MIC was 1.56 µg/mL (≈ 4.79 µM) against Pro. mirabilis T-111; 1.56 µg/mL (≈ 4.79 µM) against Pro. morganii T-216 (T216, 20 h, 10^6 cells per ml); no more than 0.05 µg/mL in the assay on Pro. vulgaris GN3027; 6.25 µg/mL (≈ 19.2 µM) in the assay on Ps. aeruginosa IFO3445; 6.25 µg/mL (≈ 19.2 µM) in the assay with Ps. aeruginosa S-68; 0.2 µg/mL (≈ 0.615 µM) in the assay with St. aureus FDA209P. Moreover, the minimum inhibitory concentration (MIC) with E. coli TK-3* came out at 0.78 µg/mL (≈ 2.4 µM); in the assay with Kl. pneumoniae Y-4* it was 1.56 µg/mL (≈ 4.79 µM); in the assay with Ps. aeruginosa GN3379*, 6.25 µg/mL (≈ 19.2 µM); with St. aureus F-137*, 0.1 µg/mL (≈ 0.307 µM); in the assay with E. coli GN5482**, 0.1 µg/mL (≈ 0.307 µM); with Pro. vulgaris GN76** (setting [2]) it was 0.39 µg/mL (≈ 1.2 µM). Also, in the assay on Ps. aeruginosa GN918** (20 h, read-out: MIC), the minimal inhibitory concentration (MIC) is 0.78 µg/mL (≈ 2.4 µM).
